Common to all, as to type: cell-based, human
One assay deals with Sox9 mRNA. As to the kind of experiment: Sox9 mRNA expression in SW1353 cells by real time quantitative PCR (TaqMan). The settings on record: 48 hours, relative to GAPDH. On the procedure: RNA was prepared from 75 cm dishes using RNeasy Kits with DNAse treatment (Qiagen) according to the manufacturer's protocol except a second application of DNase was used. cDNA was prepared from 10-20 ul of RNA (1-4 ug) using random hexamer primers and PE Biosystems Reverse Transcription reagents. Taqman reactions used 8 ul cDNA and 2× PE Universal PCR Master Mix (PE Biosystems), 900 nM PCR primers and 200 nM FAM-TAMRA probe. Reactions (50 ul) were cycled and quantified using the PE 5700 with standard conditions for 45 cycles. The data was analyzed using GeneAmp5700 software Mix (PE Biosystems), adjusting the threshold to linear range for all samples. The ΔCt is calculated by subtracting normalizer (GAPDH) from corresponding gene-specific values. The ΔΔCt is calculated by subtracting treated ΔCt from control ΔCt. Fold induction is determined by calculating 2^ΔΔCt. Data is reported as % increase over control sample.
The effect of chondrocyte growth factors as well as inhibitory cytokines on the expression of Sox9 RNA in SW1353 cells using real time quantitative PCR (TaqMan, P E Applied Biosystems) was determined. Cells were cultured and treated with growth factors or cytokines as described above. After 48 hours cells were harvested and RNA prepared. A custom Sox9 primer probe set was validated by an efficiency plot over several logs and relative Sox 9 expression was quantified relative to GAPDH.
A general note: In qPCR the cycle at which signal appears reflects the starting amount.

The next assay concerns 48 bp Col2a1 enhancer. Kind of assay: 48 bp Col2a1 enhancer luciferase reporter transfection assay in SW1353 cells. Particulars: for relief of cytokine mediated inhibition of enhancer expression by co-treatment: co-treatment with TNFα or IL-1β, SW1353 cells; for reduction of enhancer driven luciferase expression: 10 ng/ml; for effect on Sox9 activity / responsiveness of SW1353 cells transfected with the 48 bp Col2a1 enhancer: concentration not given, data not shown. As to the method:
Reagents were obtained from Invitrogen unless otherwise noted. SW1353 human chondrosarcoma cells (ATCC #HTB-94) were grown in DMEM 10% FBS 10 ug/ml Gentamicin and passaged (2 times a week) using with 0.25% Trypsin-EDTA.
Cells were plated at ˜10^6 cells per flask into a T-75 in 10 ml growth media or an equivalent based on culture vessel surface area, 24 hours prior to transfection. For each transfection, 24 ul of Transit (PanVera) was diluted into 250 ul OptiMEM and 12 ug of reporter plasmid Col2a1 enhancer construct (48 bp Col2a1, was added. After 15-30 minute incubation, growth media was removed from the cells, and the DNA-transfection reagent complexes diluted to a final volume of 10 ml with OptiMEM and added to the cells. Transfection media was replaced with fresh media after 7 hours. 24 hours post transfection the cells were treated with media alone or indicated factors. Cells were harvested 48 hours post-transfection and luciferase activity measured using the LucLite and the TopCount LSC plate reader (Packard).
We analyzed the activity of the 48 bp Col2a1 enhancer construct (48 bp Col2a1) in transfected SW1353 cells. SW1353 cells were transfected with a constant amount of reporter (0.25 ug), with or without increasing amounts of the Sox9 expression construct or empty vector.
A general note: In a reporter assay the amount or activity of a reporter protein is the signal.

The test system of a further assay is IL-8. Kind of assay: Induction of IL-8 expression in SW1353 cells. The settings on record: for stimulation of expression of IL-8: 10 ng/ml. On the procedure: SW1353 cells were transfected with the 48 bp Col2a1 reporter and then treated with vehicle, TNFα (10 ng/ml) or IL-1β (10 ng/ml) (FIG. 2A).
The effect of increasing IL-1β doses on the two response was determined. […] Therefore, SW1353 cells appear to respond to a dynamic range of IL-1β levels with selective functional responses, making them potentially useful in models of both osteoarthritis and rheumatoid diseases.

The next assay deals with matrix metalloproteases. Kind of assay: Stimulation of matrix metalloprotease expression in SW1353 cells. The settings on record: data not shown.

Turning to “FGF-1: pro-chondrogenic fibroblast growth factor”, the “increase in expression of Sox9 mRNA” value in the assay on Sox9 mRNA was about 2 fold. Moreover, the “relief of cytokine mediated inhibition of enhancer expression by co-treatment” value with 48 bp Col2a1 enhancer was “partially relieved”.
For “FGF-2: pro-chondrogenic fibroblast growth factor” the same measures were “approximately 1.5 fold” and “partially relieved”.
Turning to IL-1β: pro-inflammatory cytokine, the “stimulation of expression of IL-8” value in the assay on IL-8 is on record as “stimulate”. Further, the “induction of IL-8” value in the assay on IL-8 (IL-1 concentrations below 20 pg/ml) is listed as “not detected”. In addition, the “decrease in Sox9 expression” value in the assay on Sox9 mRNA is on record as 60%. Moreover, in the assay on 48 bp Col2a1 enhancer (transfected SW1353 cells), the “reduction of enhancer driven luciferase expression” value is on record as about 50% and the “concentration giving maximal inhibition (repression) of Col2 enhancer activity” value was found to be 20 pg/mL. Moreover, the “stimulation of Col2 enhancer activity at very low levels” value in the assay on 48 bp Col2a1 enhancer (0.1-1 pg/ml, transfected SW1353 cells) was “about 150%”. Further, in the assay with matrix metalloproteases, the “stimulation of expression of matrix metalloproteases” value is recorded as “stimulate”.
With “PTHrP: parathyroid hormone-related peptide”, the “effect on Sox9 activity / responsiveness of SW1353 cells transfected with the 48 bp Col2a1 enhancer” value (“effect on Sox9 activity / responsiveness” for short) in the assay with 48 bp Col2a1 enhancer is “not seen an effect”.
For the molecule “TGFα: growth factor to which SW1353 cells appear unresponsive”, the “effect on Sox9 activity / responsiveness” value in the assay on 48 bp Col2a1 enhancer is reported as “unresponsive”.
Consider TNFα, for which the “stimulation of expression of IL-8” value in the assay on IL-8 is listed as “stimulate”. Further, the “decrease in Sox9 expression” value in the assay with Sox9 mRNA amounted to 45%. Also, the “reduction of enhancer driven luciferase expression” value in the assay on 48 bp Col2a1 enhancer (transfected SW1353 cells) is “approximately 60%”. For the same molecule, in the assay with matrix metalloproteases, the “stimulation of expression of matrix metalloproteases” value is “stimulate”.

B1: BMP-6: BMP growth factor (protein, UniProt P22004 375-513, looked up)
Bone morphogenetic protein 6: SASSRRRQQSRNRSTQSQDVARVSSASDYNSSELKTACRKHELYVSFQDLGWQDWIIAPKGYAANYCDGECSFPLNAHMNATNHAIVQTLVHLMNPEYVPKPCCAPTKLNAISVLYFDDNSNVILKKYRNMVVRACGCH
Take B1: the “effect on Sox9 activity / responsiveness” value in the assay on 48 bp Col2a1 enhancer is “unresponsive”.

B2: BMP-4: BMP growth factor (protein, UniProt P12644 293-408, looked up)
Bone morphogenetic protein 4: SPKHHSQRARKKNKNCRRHSLYVDFSDVGWNDWIVAPPGYQAFYCHGDCPFPLADHLNSTNHAIVQTLVNSVNSSIPKACCVPTELSAISMLYLDEYDKVVLKNYQEMVVEGCGCR
B2: the “effect on Sox9 activity / responsiveness” value in the assay with 48 bp Col2a1 enhancer is “unresponsive”.

B3: FGF-7: fibroblast growth factor which signals exclusively through the epithelial-cell restricted FGFRIIIb receptor (protein, UniProt P21781 32-194, looked up)
Fibroblast growth factor 7: CNDMTPEQMATNVNCSSPERHTRSYDYMEGGDIRVRRLFCRTQWYLRIDKRGKVKGTQEMKNNYNIMEIRTVAVGIVAIKGVESEFYLAMNKEGKLYAKKECNEDCNFKELILENHYNTYASAKWTHNGGEMFVALNQKGIPVRGKKTKKEQKTAHFLPMAIT
For B3, in the assay with 48 bp Col2a1 enhancer (200 ng/ml added to transfected SW1353 cultures), the “increase in expression of the 48 bp Col2a1 enhancer” value was “no effect”.

Values taken from patent US20040241755A1, “Human cell assay to determine effect of sample compounds on Col2 enhancer expression” (Pfizer Inc., priority 2003, published 2004).
